Source: ChEMBL document CHEMBL1127822, “6-Alkyl- and 6-arylandrost-4-ene-3,17-diones as aromatase inhibitors. Synthesis and structure-activity relationships” (J Med Chem, 1994)

What was measured:
Aromatase [1] = target: T1, Aromatase (Homo sapiens, UniProt P11511); assay: Binding affinity for human placental microsome Cytochrome P450 19A1
T1 sequence (P11511 whole entry): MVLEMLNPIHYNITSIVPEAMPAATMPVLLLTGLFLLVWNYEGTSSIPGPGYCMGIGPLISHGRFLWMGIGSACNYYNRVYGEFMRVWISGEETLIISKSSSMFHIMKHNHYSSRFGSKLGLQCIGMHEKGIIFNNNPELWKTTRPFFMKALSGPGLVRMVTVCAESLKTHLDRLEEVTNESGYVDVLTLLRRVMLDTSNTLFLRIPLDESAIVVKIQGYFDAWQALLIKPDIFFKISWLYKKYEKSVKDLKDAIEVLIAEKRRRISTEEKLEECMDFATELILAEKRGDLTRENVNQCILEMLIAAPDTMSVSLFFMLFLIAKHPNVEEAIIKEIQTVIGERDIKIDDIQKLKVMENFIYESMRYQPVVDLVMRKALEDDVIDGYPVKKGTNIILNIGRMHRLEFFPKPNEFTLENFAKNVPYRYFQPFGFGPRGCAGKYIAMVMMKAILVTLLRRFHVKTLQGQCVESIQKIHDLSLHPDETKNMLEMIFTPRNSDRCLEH

Aromatase [2] = target: T1, Aromatase; assay: Inhibitory concentration was tested on Cytochrome P450 19A1 in human placental microsomes 20 (microg) of protein incubated for 20 min; set-up: species or system Placenta
Aromatase [3] = target: T1, Aromatase; assay: Binding affinity for human placental microsome aromatase Cytochrome P450 19A1

Compound | Ki (Aromatase [1]) [nM] | IC50 (Aromatase [2]) [nM] | Ki (Aromatase [3]) [nM]
CC[C@H]1CC2C3CCC(=O)C3(C)CCC2C2(C)CCC(=O)C=C12 (some centres not stated) | 4.7 | 260 | 
CCCC[C@@H]1CC2C3CCC(=O)C3(C)CCC2C2(C)CCC(=O)C=C12 (some centres not stated) | 8.8 | 510 | 
CC(C)[C@@H]1CC2C3CCC(=O)C3(C)CCC2C2(C)CCC(=O)C=C12 (some centres not stated) |  | 1100 | 22
C=C[C@@H]1CC2C3CCC(=O)C3(C)CCC2C2(C)CCC(=O)C=C12 (some centres not stated) |  | 320 | 5.1
CC12CCC3C(C[C@H](c4ccccc4)C4=CC(=O)CCC43C)C1CCC2=O (some centres not stated) |  | 1100 | 21
CC12CCC3C(C[C@@H](Cc4ccccc4)C4=CC(=O)CCC43C)C1CCC2=O (some centres not stated) |  | 4000 | 63
CCCC[C@H]1CC2C3CCC(=O)C3(C)CCC2C2(C)CCC(=O)C=C12 (some centres not stated) |  | 790 | 12
CC[C@@H]1CC2C3CCC(=O)C3(C)CCC2C2(C)CCC(=O)C=C12 (some centres not stated) | 1.4 | 140 | 
CC(C)[C@H]1CC2C3CCC(=O)C3(C)CCC2C2(C)CCC(=O)C=C12 (some centres not stated) |  | 1400 | 31
CC12CCC3C(C[C@H](Cc4ccccc4)C4=CC(=O)CCC43C)C1CCC2=O (some centres not stated) |  | 660 | 10
C[C@H]1CC2C3CCC(=O)C3(C)CCC2C2(C)CCC(=O)C=C12 (some centres not stated) | 5.6 | 350 | 
CCC[C@H]1CC2C3CCC(=O)C3(C)CCC2C2(C)CCC(=O)C=C12 (some centres not stated) |  | 390 | 6.7
C#C[C@@H]1CC2C3CCC(=O)C3(C)CCC2C2(C)CCC(=O)C=C12 (some centres not stated) | 62 | 1900 | 
CC12CCC3C(C[C@@H](c4ccccc4)C4=CC(=O)CCC43C)C1CCC2=O (some centres not stated) | 37 | 1700 | 
CCC[C@@H]1CC2C3CCC(=O)C3(C)CCC2C2(C)CCC(=O)C=C12 (some centres not stated) | 4.6 | 240 | 
C[C@@H]1CC2C3CCC(=O)C3(C)CCC2C2(C)CCC(=O)C=C12 (some centres not stated) | 11 | 720 | 
